{"source": "patent US20060134172A1", "about": "“Agents which regulate, inhibit, or modulate the activity and/or expression of lysyl oxidase (LOX) and LOX-like proteases as a unique means to both lower intraocular pressure and treat glaucomatous retinopathies/optic neuropathies” (Alcon, Inc., priority 2004, published 2006)", "origin": "cited, not measured here", "molecular_target": "T1, lysyl oxidase (Homo sapiens, UniProt P28300)", "T1 sequence (P28300 169-417)": "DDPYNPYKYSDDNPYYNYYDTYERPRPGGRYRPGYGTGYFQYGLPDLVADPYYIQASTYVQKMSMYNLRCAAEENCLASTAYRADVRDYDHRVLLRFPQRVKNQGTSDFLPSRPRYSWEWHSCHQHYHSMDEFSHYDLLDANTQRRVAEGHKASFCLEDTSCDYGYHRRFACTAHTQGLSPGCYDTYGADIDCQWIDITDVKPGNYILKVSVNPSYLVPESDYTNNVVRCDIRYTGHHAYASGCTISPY", "conditions": "known from U.S. Pat. No. 4,444,787", "data": [{"smiles": "N#CCCN", "note": "[β-aminopropionitrile (BAPN), β-aminopropionitrile]", "values": [{"measurement": "in vitro inhibition of lysyl oxidase", "result": "inhibition"}]}]}
